Test results published in publication PMC12022973, “Proteomimetic Strategy for the Modulation of Intrinsically Disordered Protein MYC” (Journal of the American Chemical Society, 2025).
Starred links: 1 amine or outer side, 2 acyl side, 3 side chain; linkers in the order of their positions; H or OH if unused. Positions of bridges follow the written chain, without caps; N, C: chain ends. Residues, ends and D or L forms follow the SMILES beside them. Chains are numbered I, II in the order given. X1 = c1cc(C[*:1])ccc1COCc1ccc(C[*:2])cc1

Experiment: Serum stability assay in 25% FBS
Assay type: in vitro ADME
Conditions: 25% fetal bovine serum in RPMI-1640, 37 °C, RP-HPLC C18 at 280 nm, L-tryptophan internal standard, triplicate, read-out: initial peptide remaining intact in serum
Experimental: Encouraged by the in vitro results, we evaluated the potential of CHD^Max-1 to form a complex with MYC in cellulo. We first assessed the ability of CHDs to resist proteolytic degradation in fetal bovine serum (FBS). We monitored the rate of peptide degradation under the treatment of 25% FBS over 24 h by RP-HPLC, with tryptophan as an internal standard. […] After validating the serum stability of CHD^Max-1, we tested its potential to enter live cells. We chose T24 cells, a bladder cancer cell line, for these studies because these cells express a high level of MYC.[39] We assessed the ability of fluorescein-labeled FITC–CHD^Max-1 to enter T24 cells using confocal microscopy and observed overlapped fluorescein and Hoechst nuclear stain signals, showing internalization of FITC–CHD^Max-1 (Figure 4C).
CD experiments were conducted on an Jasco J-1500 Circular Dichroism spectrometer equipped with a temperature controller using 1 mm length cells and a scan speed of 4.0 nm/min at 298 K. The spectra were averaged over 5 scans with baseline subtraction. […] The concentrations of each peptide were determined by the UV absorption at 280 nm.
Proteolytic stability of CHDMax-1 was assessed in 25% serum by using fetal bovine serum (FBS, Gibco) in Roswell Park Memorial Institute (RPMI)-1640 medium at 37 °C. […] Time points of 0 h, 6 h, and 24 h were analyzed in triplicate. […]

For `CC[C@H](C)[C@H](NC(=O)[C@H](CCCCN)NC(=O)[C@H](CCC(=O)O)NC(=O)[C@H](CCCNC(=N)N)NC(=O)[C@H](CC(C)C)NC(C)=O)C(=O)N[C@@H](C)C(=O)N[C@H](C(=O)N[C@@H](CC(C)C)C(=O)N[C@@H](CCC(N)=O)C(=O)N[C@@H](Cc1c[nH]c2ccccc12)C(=O)N[C@@H](CSCc1ccc(COCc2ccc(CSC[C@H](NC(=O)[C@H](CC(C)C)NC(=O)[C@H](CCC(=O)O)NC(=O)[C@H](CCC(=O)O)NC(=O)[C@@H](NC(=O)[C@H](CCC(=O)O)NC(=O)[C@H](Cc3c[nH]c4ccccc34)NC(=O)[C@H](CCC(N)=O)NC(=O)[C@H](Cc3c[nH]cn3)NC(=O)[C@@H](NC(=O)[C@H](CCC(=O)O)NC(=O)[C@H](CC(N)=O)NC(=O)[C@H](CCCCN)NC(=O)[C@H](CCCNC(=N)N)NC(=O)[C@H](CCCNC(=N)N)NC(=O)[C@H](CC(C)C)NC(C)=O)[C@@H](C)O)[C@@H](C)CC)C(N)=O)cc2)cc1)C(=O)N[C@H](C(=O)N[C@@H](CCC(=O)O)C(=O)N[C@@H](CCC(=O)O)C(=O)N[C@@H](CC(C)C)C(=O)N[C@@H](CCCNC(=N)N)C(=O)N[C@@H](CCCCN)C(N)=O)[C@@H](C)CC)[C@@H](C)O` [CHD^Max-1] (I: Ac-LREKIATLQWCIEELRK-NH2 / II: Ac-LRRKNETHQWEIEELC-NH2; linker I:11-II:16 via X1), the remaining at 24 h was about 80%.
